{"source": "paper PMC4519239", "about": "(Bioorganic & medicinal chemistry, 2013)", "key": {"α4β2*": {"biological_target": "α4β2*", "conditions": "read-out: α4β2* Ki, cited from earlier work"}, "(α1)2β1γδ": {"biological_target": "(α1)2β1γδ", "conditions": "read-out: (α1)2β1γδ Ki, cited from earlier work"}, "α3β4*": {"biological_target": "α3β4*", "conditions": "read-out: α3β4* Ki, cited from earlier work"}, "α7*": {"biological_target": "α7*", "conditions": "read-out: α7* Ki, cited from earlier work"}, "α7 nAChR": {"biological_target": "α7 nAChR (Homo sapiens, UniProt P36544)", "test": "Two-electrode voltage clamp, nAChRs expressed in Xenopus oocytes", "type": "cell-based", "conditions": "1 or 10 µM, relative to ACh control; co-applied at 1 µM with ACh"}, "α3β4 nAChR": {"biological_target": "α3β4 nAChR (Homo sapiens, UniProt P30926+P32297)", "test": "Two-electrode voltage clamp, nAChRs expressed in Xenopus oocytes", "type": "cell-based", "conditions": "1 or 10 µM, relative to ACh control; co-applied at 1 µM with ACh"}, "α4β2* nAChR": {"biological_target": "α4β2* nAChR (Rattus norvegicus, UniProt P09483+P12390)", "test": "Competition binding assay using"}, "(α1)2β1γδ nAChR": {"biological_target": "(α1)2β1γδ nAChR (Tetronarce californica, UniProt P02710+P02714+P02718)", "test": "Competition binding assay using", "parameters": "species or system Torpedo californica"}, "muscle nAChR α1β1εδ": {"biological_target": "muscle nAChR α1β1εδ (Mus musculus, UniProt P02716+P04756+P20782)", "test": "Two-electrode voltage clamp, nAChRs expressed in Xenopus oocytes", "type": "cell-based", "conditions": "1 or 10 µM, relative to ACh control; co-applied at 1 µM with ACh"}}, "note": "Where two headings read alike, the source gives them in different places."}
{"molecule": "O=c1cccc2n1C[C@@H]1CNC[C@H]2C1", "note": "[3 (Cyt), cytisine]", "values": [{"measurement": "Ki", "setting": "α4β2*; ref [41],[44],[45]", "result": 0.122, "unit": "nM"}]}
{"molecule": "O=c1c(-c2cccnc2)ccc2n1C[C@@H]1CNC[C@H]2C1", "note": "[4 (3PC), 3-(pyridine-3-yl)-cytisine]", "values": [{"measurement": "Ki", "setting": "(α1)2β1γδ; ref [41],[44],[45]", "result": "> 5000", "unit": "nM"}]}
{"molecule": "c1cnc2cc3c(cc2n1)[C@@H]1CNC[C@H]3C1", "note": "[5 (Var), varenicline]", "values": [{"measurement": "Ki", "setting": "α3β4*; ref [42]", "result": 240, "unit": "nM"}, {"measurement": "Ki", "setting": "α7*; ref [42]", "result": 322, "unit": "nM"}, {"measurement": "Ki", "setting": "α4β2*; ref [42]", "result": 0.06, "unit": "nM"}, {"measurement": "Ki", "setting": "(α1)2β1γδ; ref [42]", "result": 3540, "unit": "nM"}]}
{"molecule": "O=C1CCCC2[C@H]3CNC[C@H](C3)CN12", "note": "(some centres unmarked) [Compound 6, tetrahydrocytisine]", "values": [{"measurement": "Ki", "setting": "α3β4*; ref [44]", "result": "385 ± 6", "unit": "nM"}, {"measurement": "Ki", "setting": "α7*; ref [44]", "result": 2000, "unit": "nM"}, {"measurement": "Ki", "setting": "α4β2*; ref [44]", "result": 17, "unit": "nM"}]}
{"molecule": "CN1C[C@@H]2C[C@H](C1)C1CCCC(=O)N1C2", "note": "(some centres unmarked) [Compound 7]", "values": [{"measurement": "Ki", "setting": "α3β4*; ref [44]", "result": 2450, "unit": "nM"}, {"measurement": "Ki", "setting": "α7*; ref [44]", "result": 10000, "unit": "nM"}, {"measurement": "Ki", "setting": "α4β2*; ref [44]", "result": 34, "unit": "nM"}, {"measurement": "Ki", "setting": "(α1)2β1γδ; ref [44]", "result": "> 50000", "unit": "nM"}]}
{"molecule": "CC(=O)N1C[C@@H]2CNC[C@@H](C2)C1.O=C(O)/C=C/C(=O)O", "note": "[Compound 8, (1R, 5S)-1-(3,7-diazabicyclo[3.3.1]nonan-3-yl)ethanone]", "values": [{"measurement": "functional profile at α7", "setting": "α7 nAChR", "result": "agonism"}]}
{"molecule": "CCC(=O)N1C[C@@H]2CNC[C@@H](C2)C1.O=C(O)/C=C/C(=O)O", "note": "[Compound 15, (1R,5S)-1-(3,7-diazabicyclo[3.3.1]nonan-3-yl)propan-1-one]", "values": [{"measurement": "functional profile at α3β4*", "setting": "α3β4 nAChR", "result": "Possible agonistic effects"}]}
{"molecule": "CCCC(=O)N1C[C@@H]2CNC[C@@H](C2)C1.O=C(O)/C=C/C(=O)O", "note": "[Compound 16, (1R,5S)-1-(3,7-diazabicyclo[3.3.1]nonan-3-yl)butan-1-one]", "values": [{"measurement": "fold higher affinity for the α4β2* receptor", "setting": "α4β2* nAChR; α4β2* versus α3β4*", "result": "about 74 fold"}, {"measurement": "functional profile at α3β4*", "setting": "α3β4 nAChR", "result": "Possible agonistic effects"}, {"measurement": "functional profile at α7", "setting": "α7 nAChR", "result": "agonism"}]}
{"molecule": "O=C(O)/C=C/C(=O)O.O=C(c1cccc(Cl)c1)N1C[C@@H]2CNC[C@@H](C2)C1", "note": "[Compound 22, (1R,5S)-3,7-diazabicyclo[3.3.1]nonan-3-yl(3-chlorophenyl)methanone]", "values": [{"measurement": "affinity for the α4β2* subtype in words", "setting": "α4β2* nAChR", "result": "inactive"}]}
{"molecule": "O=C(O)/C=C/C(=O)O.O=C(c1cccc([N+](=O)[O-])c1)N1C[C@@H]2CNC[C@@H](C2)C1", "note": "[Compound 23, (1R,5S)-3,7-diazabicyclo[3.3.1]nonan-3-yl(3-nitrophenyl)methanone]", "values": [{"measurement": "affinity for the α4β2* subtype in words", "setting": "α4β2* nAChR", "result": "inactive"}]}
{"molecule": "CS(=O)(=O)N1C[C@@H]2CNC[C@@H](C2)C1", "note": "[Compound 34, (1R,5S)-3-(methylsulfonyl)-3,7-diazabicyclo[3.3.1]nonane]", "values": [{"measurement": "Ki", "setting": "(α1)2β1γδ nAChR", "result": "> 10000", "unit": "nM"}]}
{"molecule": "Cl.O=S(=O)(c1ccc(Br)cc1)N1C[C@@H]2CNC[C@@H](C2)C1", "note": "[Compound 39, (1R,5S)-3-(4-bromophenylsulfonyl)-3,7-diazabicyclo[3.3.1]nonane]", "values": [{"measurement": "affinity for the α4β2* subtype in words", "setting": "α4β2* nAChR", "result": "nonactive"}]}
{"molecule": "O=[N+]([O-])c1ccc(S(=O)(=O)N2C[C@@H]3CNC[C@@H](C3)C2)cc1", "note": "[Compound 40, (1R,5S)-3-(4-nitrophenylsulfonyl)-3,7-diazabicyclo[3.3.1]nonane]", "values": [{"measurement": "Ki", "setting": "(α1)2β1γδ nAChR", "result": "> 10000", "unit": "nM"}]}
{"molecule": "CN(C)C(=O)N1C[C@@H]2CNC[C@@H](C2)C1.O=C(O)/C=C/C(=O)O", "note": "[Compound 41, (1R,5S)-N,N-dimethyl-3,7-diazabicyclo[3.3.1]nonane-3-carboxamide]", "values": [{"measurement": "fold lower affinity for the α4β2* nAChR", "setting": "α4β2* nAChR; compared to carboxamide analog 17", "result": 10, "unit": "fold"}]}
{"molecule": "CCN(CC)C(=O)N1C[C@@H]2CNC[C@@H](C2)C1.O=C(O)/C=C/C(=O)O", "note": "[Compound 42, (1R,5S)-N,N-diethyl-3,7-diazabicyclo[3.3.1]nonane-3-carboxamide]", "values": [{"measurement": "affinity for the α4β2* subtype in words", "setting": "α4β2* nAChR", "result": "lost its affinity"}]}
{"molecule": "O=C(C1CCCC1)N1C[C@@H]2CNC[C@@H](C2)C1.O=C(O)/C=C/C(=O)O", "note": "[Compound 43, (1R,5S)-3,7-diazabicyclo[3.3.1]nonan-3-yl(cyclopentyl)methanone]", "values": [{"measurement": "functional profile at α3β4*", "setting": "α3β4 nAChR", "result": "Possible agonistic effects"}, {"measurement": "functional profile at α7", "setting": "α7 nAChR", "result": "agonism"}]}
{"molecule": "O=C(CC1CCCC1)N1C[C@@H]2CNC[C@@H](C2)C1.O=C(O)/C=C/C(=O)O", "note": "[Compound 55, 1-((1R,5S)-3,7-diazabicyclo[3.3.1]nonan-3-yl)-2-cyclopentylethanone]", "values": [{"measurement": "functional profile at α3β4*", "setting": "α3β4 nAChR", "result": "essentially no effect"}, {"measurement": "functional profile at α7", "setting": "α7 nAChR", "result": "apparent antagonistic activity"}, {"measurement": "functional profile at muscle type", "setting": "muscle nAChR α1β1εδ", "result": "apparent antagonistic activity"}]}
{"molecule": "O=C(N1CCCC1)N1C[C@@H]2CNC[C@@H](C2)C1.O=C(O)/C=C/C(=O)O", "note": "[Compound 67, (1R,5S)-3,7-diazabicyclo[3.3.1]nonan-3-yl(pyrrodin-1-yl)methanone]", "values": [{"measurement": "affinity for the α4β2* subtype in words", "setting": "α4β2* nAChR", "result": "not active"}, {"measurement": "Ki", "setting": "(α1)2β1γδ nAChR", "result": "> 10000", "unit": "nM"}]}
{"molecule": "O=C(N1CCC(Cc2ccccc2)CC1)N1C[C@@H]2CNC[C@@H](C2)C1", "note": "[Compound 69, (1R,5S)-3,7-diazabicyclo[3.3.1]nonan-3-yl(4-benzylpiperidin-1-yl)methanone]", "values": [{"measurement": "Ki", "setting": "(α1)2β1γδ nAChR", "result": "> 5000", "unit": "nM"}]}
{"molecule": "CC(=O)N1C[C@@H]2C[C@@H](CN(C)C2)C1", "note": "[Compound 70, 1-((1R,5S)-7-methyl-3,7-diazabicyclo[3.3.1]nonan-3-yl)ethanone]", "values": [{"measurement": "fold lower affinity for the α4β2* subtype", "setting": "α4β2* nAChR; compared to acetylbispidine 8", "result": 35, "unit": "fold"}]}
{"molecule": "C1NCC2CNCC1C2", "note": "[bispidine, 3,7-diazabicyclo[3.3.1]nonane]", "values": [{"measurement": "functional profile at α7", "setting": "α7 nAChR", "result": "weak activation"}]}
